Read-outs that look alike come from different tables or passages of the source.
Legend:
[1] = target: pfDHODH (Plasmodium falciparum (isolate 3D7), UniProt Q08210); assay: DHODH chromogen reduction (DCIP) assay, pfDHODH; assay type: biochemical, P. falciparum
Source text: Type 2 DHODH activity was monitored with either the direct assay measuring the formation of orotate or via a chromogen reduction assay using DCIP. Although the extinction coefficient and absorption wavelength are preferable for the chromogen reduction assay, the inorganic electron acceptor DCIP can be utilized by DHODH as the final electron acceptor in lieu of CoQn when the endogenous substrate is at a low concentration. As such, the direct assay was used to measure the binding affinity of pfDHODH to CoQD and L-DHO. The enzymatic reaction was performed by varying the L-DHO concentration (1-400 μM) or CoQD concentration (1-200 μM) while keeping the other substrate constant and in excess.
Substrate specificity and enzyme inhibition data was analyzed with GraphPad Prism Version 4 for Windows (GraphPad Software). Kinetic constants were calculated by non-linear regression fitting of the data to the Michaelis-Menten equation [36]. IC50 values were determined by non-linear regression fitting of the data to Equation 1: […]

[2] = tested on: P. falciparum Dd2; assay: Inhibition of in vitro P. falciparum culture, [3H]-hypoxanthine uptake, Dd2; assay type: cell-based; settings: read-out: Dd2 EC50
Experimental: (§1) P. falciparum strains D10, 3D7, HB3, and Dd2 were obtained from the Malaria Research and Reference Reagent Resource Center (Manassas, Va.). The parasite strains were maintained in vitro by method of Trager and Jensen. The inhibition of P. falciparum growth in the presence of drug was assessed by the relative reduction of [^3H]-hypoxanthine uptake as previously described. Inhibition data were fitted to Equation 1 using non-linear regression analysis except that the relative velocity of parasite growth was substituted for the rate of product formation.

[3] = tested on: P. falciparum 3D7; assay: Inhibition of in vitro P. falciparum culture, [3H]-hypoxanthine uptake, 3D7; assay type: cell-based; settings: read-out: 3D7 EC50
Experimental: as §1

[4] = Table 2b, read-out: pfDHODH IC50
[5] = Plasmodium falciparum, DD2, Table 2b
[6] = Plasmodium falciparum, 3D7, Table 2b

pfDHODH, sequence (Q08210 159-565 limits assumed): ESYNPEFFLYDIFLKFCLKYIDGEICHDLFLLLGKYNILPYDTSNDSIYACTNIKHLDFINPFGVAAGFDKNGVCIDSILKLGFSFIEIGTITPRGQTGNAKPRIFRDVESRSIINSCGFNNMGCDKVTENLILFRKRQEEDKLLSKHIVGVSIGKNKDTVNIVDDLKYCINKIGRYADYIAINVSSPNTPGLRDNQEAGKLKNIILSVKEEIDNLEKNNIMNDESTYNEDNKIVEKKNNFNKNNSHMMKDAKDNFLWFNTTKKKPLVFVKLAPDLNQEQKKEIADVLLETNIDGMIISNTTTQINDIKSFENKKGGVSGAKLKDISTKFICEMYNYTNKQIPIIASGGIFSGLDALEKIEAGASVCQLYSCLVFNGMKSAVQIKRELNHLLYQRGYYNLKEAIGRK

Structure (SMILES)	IC50 [1, 4] [µM]	EC50 [2, 5] [µM]	EC50 [3, 6] [µM]	IC50 ([1]; pfDHODH IC50, Table 2b) [µM]	EC50 ([2]; Table 2b) [µM]	EC50 ([3]; Table 2b) [µM]
Cc1nc(-c2ccc(Cl)cc2)cn1-c1ccc(C(=O)NC2CC2)s1 [Compound 96]	0.252	–	–	–	–	–
c1ccc2oc(-c3ccc(-c4nc5ccccc5o4)s3)nc2c1 [Compound 83]	> 30	> 5	> 5	–	–	–
Cc1nc2cc(Cl)ccc2n1-c1ccc(C(=O)NC2CC2)s1 [Compound 41]	–	–	–	0.04	0.083	0.067
CCCNC(=O)c1ccc(-n2ccnc2)s1 [Compound 15, 5-(1H-imidazol-1-yl)-N-propylthiophene-2-carboxamide]	165	> 10	> 10	–	–	–
CCCNC(=O)c1ccc(N2CC(C)Sc3ccccc32)s1 (centres unmarked) [Compound 17, 5-(2-methyl-2H-benzo[b][1,4]thiazin-4(3H)-yl)-N-propylthiophene-2-carboxamide]	19.1	> 10	> 10	–	–	–
CCCC/C(=N/OC)c1ccc(-n2cnc3ccccc32)s1 [Compound 88, 1-[5-(1H-benzimidazol-1-yl)-2-thienyl]pentan-1-one O-methyloxime]	> 30	2.6	5.4	–	–	–
CCCNC(=O)c1ccc(N2CCCC2)s1 [Compound 14, N-propyl-5-(pyrrolidin-1-yl)thiophene-2-carboxamide]	> 250	> 10	> 10	–	–	–
Cn1c(-c2ccc(C(=O)NC3CC3)s2)nc2ccccc21 [Compound 79]	> 30	> 5	> 5	–	–	–
CCCCC(O)c1ccc(-n2cnc3ccccc32)s1 (centres unmarked) [Compound 85, 1-[5-(1H-benzimidazol-1-yl)-2-thienyl]pentan-1-ol]	> 30	5.9	20	–	–	–
O=C(c1ccc(-n2cnc3ccccc32)s1)N1CCCC1 [Compound 26]	> 30	20	10	–	–	–
CCNC(=O)c1cccc(-n2c(C)nc3cc(F)ccc32)c1 [Compound 92]	> 30	> 1	> 1	–	–	–
O=C(c1ccc(-n2cnc3ccccc32)s1)N1CCCCC1 [Compound 34]	> 30	> 20	> 20	–	–	–
CCCC/C(=N/O)c1ccc(-n2cnc3ccccc32)s1 [Compound 87, 1-[5-(1H-benzimidazol-1-yl)-2-thienyl]pentan-1-one oxime]	> 30	10	40	–	–	–
CCNC(=O)c1ccc(-n2c(C)nc3cc(F)ccc32)cc1 [Compound 91]	2.87	> 0.5	> 0.5	–	–	–
Cc1nc2cccnc2n1-c1ccc(C(=O)NC2CC2)s1 [Compound 72]	1.12	0.52	0.364	–	–	–
O=C(NC1CC1)c1ccc(-n2nnc3ccccc32)s1 [Compound 99, 5-(1H-benzo[d][1,2,3]triazol-1-yl)-N-cyclopropylthiophene-2-carboxamide]	28	–	–	–	–	–
CCCNC(=O)c1ccc(N2CCc3ccccc32)s1 [Compound 20, 5-(indolin-1-yl)-N-propylthiophene-2-carboxamide]	> 30	> 10	> 10	–	–	–
CCCNC(=O)c1ccc(N2CCOc3ccc(Cl)cc32)s1 [Compound 19, 5-(6-chloro-2H-benzo[b][1,4]oxazin-4(3H)-yl)-N-propylthiophene-2-carboxamide]	7.5	> 10	> 10	–	–	–
CN(C)C(=O)c1ccc(-n2cnc3ccccc32)s1 [Compound 27]	> 30	> 40	> 40	–	–	–
CCCC/C(=N\O)c1ccc(-n2cnc3ccccc32)s1 [Compound 86, 1-[5-(1H-benzimidazol-1-yl)-2-thienyl]pentan-1-one oxime]	> 30	20	10	–	–	–
Cc1nc2ccccc2n1-c1cscc1C(=O)NC1CC1 [Compound 77, N-cyclopropyl-4-(2-methyl-1H-benzo[d]imidazol-1-yl)thiophene-3-carboxamide]	> 30	> 5	> 5	–	–	–

Structure (SMILES)	IC50 [1, 4] [µM]	EC50 [2, 5] [µM]	EC50 [3, 6] [µM]	IC50 ([1]; pfDHODH IC50, Table 2b) [µM]	EC50 ([2]; Table 2b) [µM]	EC50 ([3]; Table 2b) [µM]
CC[C@H](C)NC(=O)c1ccc(-n2cnc3ccccc32)s1 [Compound 37]	17.9	> 20	> 20	–	–	–
CCCNC(=O)c1ccc(N2CCOCC2)s1 [Compound 13, 5-morpholino-N-propylthiophene-2-carboxamide]	> 250	> 10	> 10	–	–	–
O=C(NC1CC1)c1ccc(-c2nc3ccccc3o2)s1 [Compound 80]	> 30	1.71	2.58	–	–	–
Cc1nc2ncccc2n1-c1ccc(C(=O)NC2CC2)s1 [Compound 73]	4.77	2.4	1.3	–	–	–
Cc1nc2cc(F)c(F)cc2n1-c1ccc(C(=O)NC2CC2)s1 [Compound 95]	0.105	–	–	–	–	–
Cn1c(-c2ccc(-c3nc4ccccc4n3C)s2)nc2ccccc21 [Compound 82]	> 30	> 5	> 5	–	–	–
Cc1nc2ccc(-c3ccccc3)cc2n1-c1ccc(C(=O)NC2CC2)s1 [Compound 98]	0.089	–	–	–	–	–
Cc1nc2cnccc2n1-c1ccc(C(=O)NC2CC2)s1 [Compound 71]	3.08	6.3	3.7	–	–	–
CCCNC(=O)c1ccc(-n2cnc3cncnc32)s1 [Compound 16, N-propyl-5-(9H-purin-9-yl)thiophene-2-carboxamide]	–	> 10	> 10	–	–	–
CCCCNC(=O)c1ccc(-n2cnc3ccccc32)s1 [Compound 29]	28.6	7.3	20	–	–	–
Cc1nc2cc(OC(C)C)ccc2n1-c1ccc(C(=O)NC2CC2)s1 [Compound 94]	0.121	0.061	0.051	–	–	–
O=C(NC1CC1)c1ccc(-n2c(O)nc3ccccc32)s1 [Compound 45]	> 30	5	5	–	–	–
CCCNC(=O)c1ccc(N2CCSc3ccccc32)s1 [Compound 18, 5-(2H-benzo[b][1,4]thiazin-4(3H)-yl)-N-propylthiophene-2-carboxamide]	9.2	> 10	> 10	–	–	–
CCCN(C)C(=O)c1ccc(-n2cnc3ccccc32)s1 [Compound 48]	> 30	> 5	> 5	–	–	–
O=C(c1ccc(-n2cnc3ccccc32)s1)N1CCC1 [Compound 46]	16.5	5	5	–	–	–
Cc1nc2cc3ccccc3cc2n1-c1ccc(C(=O)NC2CC2)s1 [Compound 93]	0.035	0.019	0.017	–	–	–
CC[C@@H](C)NC(=O)c1ccc(-n2cnc3ccccc32)s1 [Compound 47]	> 30	> 5	> 5	–	–	–
c1ccc2[nH]c(-c3ccc(-c4nc5ccccc5[nH]4)s3)nc2c1 [Compound 81]	> 30	> 5	5	–	–	–
O=C(NC1CC1)c1ccc(-n2ncc3ccccc32)s1 [Compound 100, N-cyclopropyl-5-(1H-indazol-1-yl)thiophene-2-carboxamide]	> 30	–	–	–	–	–
Cc1nc2cc(-c3ccccc3)ccc2n1-c1ccc(C(=O)NC2CC2)s1 [Compound 97]	0.178	–	–	–	–	–
NC(=O)c1ccc(-n2cnc3ccccc32)s1 [Compound 28]	> 30	20	> 40	–	–	–
